Experimental data: US12153049B2, “BCR-ABL variants” (Quest Diagnostics Investments LLC, priority 2008, dated 2024)
pIC50: −log10 of the molar value. “And” between values parts separate entries of the source, which are not always exact repeats. Equal values may be shown once. “Also recorded” adds a separate entry of the source. Where a name gives a salt, the structure may show the parent alone. Read-outs that look alike come from different tables or passages of the source.

Key:
[1] = tested on: tyrosine kinase (TK) activity in K562 cells transfected with BCR-ABL1 35INS; assay: Universal Tyrosine Kinase Assay on cell extract, K562 BCR-ABL1 35INS; assay type: cell-based, human
Experimental: (§1) K562 cells were cotransfected with increasing amounts of plasmid encoding pMIG/35 INS bcr-abl and either 100 ng of pMIG/BCR-ABL1p210 or the same amount of control vector (empty vector plasmid). […] Rabbit polyclonal IgG anti-Lyn, anti-Aurora A, and anti-Aurora B were obtained from Santa Cruz Biotechnology, (Santa Cruz, CA); rabbit polyclonal IgG anti-p-Src, anti-p-StatS, and anti-p-Crkl were obtained from Cell Signaling (Danvers, MA). Goat anti-rabbit PE (Santa Cruz Biotechnology) was used as the secondary antibody. LYN, p-CRKL, p-SRC, p-STATS, and Aurora A and B status were monitored. All experiments were repeated at least three times.
(§2) Tyrosine kinase assay was performed using the Universal Tyrosine Kinase Assay Kit (GenWay Biotech, San Diego, CA) according to the manufacturer's instruction. The universal protein tyrosine kinase substrate peptide, Poly (Glu-Tyr) (4:1, 20-50 kDa) was pre-coated onto 96-well microtiter plates. Serial dilutions of prepared cell extract and 5-point standards (with known tyrosine kinase activities) were added to the plate in triplicates along with an ATP-containing kinase buffer. After incubation at 37° C. for 30 min to allow phosphorylation of tyrosine residues, the sample solution was removed and the wells washed with Washing buffer (PBS with 0.05% Tween-20) and blocked with Blocking solution. Anti-phosphotyrosine (PY20)-horse radish peroxidase (HRP) conjugate was then added to the plate. After incubation at 37° C. for 30 min, the PY20-HRP solution was replaced by HRP substrate solution (TMBZ). For colorimetric determination of PTK activity, the sample's specific absorbance at 450 nm was calculated from the standard curve.

[2] = tested on: caspase-3 activation in K562 cells; assay: Caspase-3 activation (apoptosis) assay in transfected K562 cells; assay type: cell-based, human; conditions: for Effect of 35 INS BCR-ABL gene transfer on drug-induced caspase-3 activation: K562 cells transfected with 35 INS BCR-ABL
Experimental: To perform caspase assays, K562 cells were transiently transfected in 6-well dishes using the above procedure. […] Typically, 15-25 μg of lysates were analyzed for protease activity by continuously measuring the release of fluorogenic substrate Ac-DEVD-aminofluoromethylcoumarin product from EMD (San Diego, CA) at 37° C., as described (Capdeville et al., Nat. Rev. Drug Discov. 2002, 1:493).
Induction of apoptosis measured by caspase-3 activation (mean [SD]; n=3) in K562 cells transfected with the different plasmids as described above and shown in FIG. 18B.
(§3) Lysates were prepared at the times indicated and examined by caspase-3 assay (left) or by immunoblots using specific antibodies for BIM and actin (right) (see FIGS. 22A-22B).

[3] = tested on: phosphorylation of CrkL, LYN, pSRC, pSTAT5, Aurora A and B in K562 cells; assay: Phosphorylation of BCR-ABL substrates, K562 cells; assay type: cell-based, human
Experimental: (§4) The effect of a compound on the kinase activity of the BCR-ABL is assessed by monitoring tyrosine phosphorylation profile of the cellular proteins. […] Genetically modified cells comprising recombinant bcr-abl or variant so of bcr-abl including the splice variant are grown in presence of various amounts of a compound for treating CML patients. […] Amount of phosphorylated CrkL protein can be measured by using detectably labeled anti-phospho CrkL antibody. In one embodiment, the detectable label is phycoerythrin. The signal can be detected by Flow cytometer. Alternatively, the signal can be detected by Fluorescent Microtiter plate reader.
as §1

[4] = tested on: K562 cells transfected with pMIG/BCR-ABL1p210; assay: MTT cell proliferation assay, K562 cells transfected with pMIG/BCR-ABL1p210; assay type: cell-based, human; conditions: for pIC50: pMIG/BCR-ABL1p210 0.1 μg DNA, K562 cells, drug 48 h, read-out: IC50 (median-effect dose, MTT); for Resistance to the drug caused by wild-type BCR-ABL1p210 expression: K562 cells transfected with BCR-ABL1p210
Experimental: (§5) K562 cells were cotransfected with an increasing amount (0 to 100 ng) of plasmid pMIG/35 INS BCR-ABL and 100 ng of either pMIG/BCR-ABL1p210 or empty plasmid (pMIG). […] The effect of the drugs on cell proliferation was measured by MTT assay (FIG. 18A, right panel; mean±S.D; n=3). Dose response to cell death curves of K562 cells exposed to drugs were generated with the CalcuSyn® software package (Biosoft, Ferguson, MO) for each of at least three experiments.

[5] = tested on: K562 CML cells (empty vector); assay: MTT cell proliferation assay, K562 cells with empty vector; assay type: cell-based, human; conditions: for pIC50: Empty vector pCMV/GFP, drug 48 h, read-out: IC50 (median-effect dose, MTT)
Experimental: The effect of the drugs on cell proliferation was measured by MTT assay (FIG. 18A, right panel; mean±S.D; n=3). Dose response to cell death curves of K562 cells exposed to drugs were generated with the CalcuSyn® software package (Biosoft, Ferguson, MO) for each of at least three experiments.

[6] = tested on: K562 cells transfected with pMIG/35 INS bcr-abl; assay: MTT cell proliferation/viability assay, K562 cells transfected with pMIG/35 INS bcr-abl; assay type: cell-based, human; conditions: for pIC50: read-out: IC50 (median-effect dose, MTT)
Experimental: as §5

[7] = tested on: tyrosine kinase (TK) activity in K562 cells transfected with BCR-ABL1p210; assay: Universal Tyrosine Kinase Assay on cell extract, K562 BCR-ABL1p210; assay type: cell-based, human; conditions: relative to no-drug control, imatinib 1.2 μM, nilotinib 5 nM, dasatinib 5 nM, MK 0457 2 μM, homoharringtonine X μM
Experimental: as §1, with “times. Asterisk indicates p<0.05 relative to Control (empty vector).” for “times.”
as §2

[8] = tested on: tyrosine kinase (TK) activity in K562 cells (empty vector); assay: Universal Tyrosine Kinase Assay on cell extract, K562 empty vector; assay type: cell-based, human; conditions: relative to no-drug control, imatinib 1.2 μM, nilotinib 5 nM, dasatinib 5 nM, MK 0457 2 μM, homoharringtonine X μM
Experimental: as §1, with “times. Asterisk indicates p<0.05 relative to Control (empty vector).” for “times.”
as §2

[9] = tested on: phosphorylation of CrkL and other substrates in K562 cells transfected with pMIG/35 INS bcr-abl; assay: Phosphorylation of BCR-ABL substrates, K562 cells transfected with pMIG/35 INS bcr-abl; assay type: cell-based, human
Experimental: as §4, §1

CML patients = conditions: cited from earlier work
[10] = tested on: BIM expression in K562 cells; assay: BIM induction by immunoblot in K562 cells; assay type: cell-based, human; conditions: 24 to 48 hours' incubation
Experimental: as §3

[11] = BCR-ABL1 35INS, relative to no-drug control, imatinib 1.2 μM, nilotinib 5 nM, dasatinib 5 nM, MK 0457 2 μM, homoharringtonine X μM

| Structure (SMILES) | Effect of 35 INS BCR-ABL gene transfer on drug-induced caspase-3 activation [2] | Effect on Aurora A and B [3] | pIC50 ([4]; Homo sapiens) | Resistance to the drug caused by wild-type BCR-ABL1p210 expression [4] | Cell death in K562 cells [5] | pIC50 ([5]; Homo sapiens) | Relative tyrosine kinase activity [7] | Relative tyrosine kinase activity [8] | Relative tyrosine kinase activity [1, 11] | other results |
| --- | --- | --- | --- | --- | --- | --- | --- | --- | --- | --- |
| Cc1cn(-c2cc(NC(=O)c3ccc(C)c(Nc4nccc(-c5cccnc5)n4)c3)cc(C(F)(F)F)c2)cn1 [Nilotinib, nilotinib] | induced resistance | no effect | 7.38 | did not induce resistance | induced cell death | 7.38 | 33.1% | 23.4% | – | Relative tyrosine kinase activity [1]: 76.2%; Relative potency in induction of apoptosis (caspase-3 activation) ([2]; K562 cells): more potent than imatinib; Phosphorylation of CrkL, LYN, pSRC and pSTAT5 [3]: inhibited phosphorylation; Increase of IC50 with pMIG/35 INS bcr-abl vector [6]: 1.7 fold; pIC50 ([6]; Homo sapiens, K562, 48 h): 7.28; pIC50 [6]: 7.27 and 7.15 |
| Cc1nc(Nc2ncc(C(=O)Nc3c(C)cccc3Cl)s2)cc(N2CCN(CCO)CC2)n1 [Dasatinib, dasatinib] | – | no effect | 7.96 | – | – | 7.92 | 20.6% | 15.6% | – | – |
| Cc1cc(Nc2cc(N3CCN(C)CC3)nc(Sc3ccc(NC(=O)C4CC4)cc3)n2)n[nH]1 [MK-0457] | did not affect the rate of caspase-3 activation | – | – | did not induce resistance | – | – | 96.7% | 87.3% | 100% | pIC50 [4]: 5.75; pIC50 [5]: 5.74; Resistance to the drug caused by 35 INS BCR-ABL expression (MTT) ([6]; K562 cells transfected with pMIG/35 INS bcr-abl): did not induce resistance; pIC50 ([6]; pMIG/35 INS bcr-abl 0.01 μg DNA, K562 cells, drug 48 h): 5.70; pIC50 ([6]; pMIG/35 INS bcr-abl 0.05 μg DNA, K562 cells, drug 48 h): 5.70; pIC50 ([6]; pMIG/35 INS bcr-abl 0.1 μg DNA, K562 cells, drug 48 h): 5.81; Effect of 35 INS BCR-ABL expression on inhibition of kinases/phosphorylation by the drug [9]: no effect on inhibition |
| Cc1ccc(NC(=O)c2ccc(CN3CCN(C)CC3)cc2)cc1Nc1nccc(-c2cccnc2)n1 [Imatinib, imatinib mesylate] | induced resistance; also recorded: increase was inhibited | – | – | did not induce resistance | induced cell death | – | – | – | – | Primary resistance rate (failure to achieve any hematologic response) (CML patients; accelerated-phase CML): 9%; Secondary resistance rate (hematologic recurrence) (CML patients; accelerated-phase CML): 32%; Primary resistance rate (failure to achieve any hematologic response) (CML patients; blast-phase CML): 51%; Secondary resistance rate (hematologic recurrence) (CML patients; blast-phase CML): 41%; Primary resistance rate (failure to achieve any hematologic response) (CML patients; chronic-phase CML): 3%; Secondary resistance rate (hematologic recurrence) (CML patients; chronic-phase CML): 22%; Caspase-3 activation over time ([2]; CML K562 cells, continuous treatment): increased with time; BIM expression / induction [10]: expressed at increased levels |
| COC(=O)C[C@](O)(CCCC(C)(C)O)C(=O)O[C@@H]1C(OC)=C[C@]23CCCN2CCc2cc4c(cc2[C@H]13)OCO4 [HHT, homoharringtonine] | – | – | 7.27 | – | – | 7.20 | 79.2% | 59.8% | 75.4% | pIC50 ([6]; Homo sapiens, K562, 48 h, pMIG/35 INS bcr-abl 0.01 μg DNA, K562 cells, drug 48 h): 7.21; pIC50 ([6]; Homo sapiens, K562, 48 h, pMIG/35 INS bcr-abl 0.05 μg DNA, K562 cells, drug 48 h): 7.31; pIC50 ([6]; Homo sapiens, K562, 48 h, pMIG/35 INS bcr-abl 0.1 μg DNA, K562 cells, drug 48 h): 7.27 |
